According to patent US9932543B2, “Bacterial spore compositions for industrial uses” (priority 2014, dated 2018):
Bridge positions count the residues as written; N and C are the ends. Square brackets hold non-standard residues; d marks the D form. Peptide text beside a SMILES is read from it. * marks the point of attachment. Ileψ(thiazoline)Cys = CC[C@H](C)[C@H](N)C1=N[C@H](C(=O)*)CS1; dOrn = NCCC[C@@H](N)C(=O)O

System: Eimeria maxima and Clostridium perfringens
Format: in vivo, Cobb 500 Chicks (Gallus gallus domesticus)
Settings: infected chickens

CC[C@H](C)[C@H](N)C1=N[C@H](C(=O)N[C@@H](CC(C)C)C(=O)N[C@H](CCC(=O)O)C(=O)N[C@H](C(=O)N[C@H]2CCCCNC(=O)[C@H](CC(N)=O)NC(=O)[C@@H](CC(=O)O)NC(=O)[C@H](Cc3cnc[nH]3)NC(=O)[C@@H](Cc3ccccc3)NC(=O)[C@H]([C@@H](C)CC)NC(=O)[C@@H](CCCN)NC2=O)[C@@H](C)CC)CS1 [Treatment Group 5, Bacitracin] ({Ileψ(thiazoline)Cys}-L[dE]IK[dOrn]I[dF]H[dD]N; lactam 4-C)
Weight Gain Day 0-28: 0.811a kg | Weight gain over the infected negative control (Day 0-28): significant increase in weight gain | Mortality (Day 28): 3.1b % | Lesion Score (0-3) (Day 28, 0 normal, 3 most severe): 0.5b | Feed Conversion Day 0-28 (kg of food per kg of body weight): 1.585c
